Consider 10 compounds from patent US20230117034A1, “PYRAZOLOTRIAZINES” (Bayer Aktiengesellschaft, priority 2019, published 2023).

SMILES strings stand for the structures.

Assay [1] deals with CAL-120, human breast adenocarcinoma cells. Description: Proliferation assay CAL-120 (crystal violet, 4 days). The format is cell-based. Particulars: Homo sapiens, CAL-120, 96 h, CAL-120 cells, median, read-out: Prolif-CAL-120, IC50-[mol/l] (median). Put shortly:
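CAL-120 or MDA-MB-231 cells grown 24 h, then exposed 4 days to compound (0.01–10 micromol/L, 0.1% DMSO). Crystal violet staining, absorbance at 595 nm, normalised to a zero-point plate (0%) and untreated cells (100%); IC50 by 4-parameter fit.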

Assay [2] concerns BRCA1 mRNA expression in MDA-MB-231 cells. As to the kind of experiment: qRT-PCR assay: BRCA1 mRNA expression in MDA-MB-231. The format is cell-based, human. Particulars: Homo sapiens, MDA-MB-231, Inhibition of BRCA1 mRNA expression in MDA-MB-231 cells; median; read-out: RTqPCR-MDA-MB-231, IC50, BRCA1 (median). Summed up: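 MDA-MB-231 cells, 200,000/well, treated 24 h after plating with continuous 24 h compound exposure. RNA extracted, 600 ng reverse-transcribed, BRCA1 measured by RT-qPCR normalized to GAPDH.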
(In general: Real-time PCR tracks product formation cycle by cycle.)

The target of another assay is CDK12/CycK (Homo sapiens, UniProt Q9NYV4). As to the kind of experiment: CDK12/CycK high ATP kinase assay (TR-FRET, 2 mM ATP). Format: biochemical. The conditions noted are these: 2 mM ATP (high ATP); median; read-out: CDK12/CyclinK, 2 mM ATP (high ATP), IC50-[mol/l] (median). Summed up:
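His-tagged human CDK12/CycK (~0.75 nM) pre-incubated 15 min with compound, then 60 min at 22 °C with 2 mM ATP and 1 µM biotinylated peptide (HEPES pH 7.5, 20 mM MgCl2). EDTA stop; phospho-Ser62 antibody/Eu anti-rabbit and streptavidin-XL665 TR-FRET, 665/620 nm ratio normalised to give IC50.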
For orientation: Time-resolved FRET reads energy transfer from a long-lived donor to a nearby acceptor.

Sequence of CDK12/CycK (Q9NYV4 with tags, fused parts or gaps): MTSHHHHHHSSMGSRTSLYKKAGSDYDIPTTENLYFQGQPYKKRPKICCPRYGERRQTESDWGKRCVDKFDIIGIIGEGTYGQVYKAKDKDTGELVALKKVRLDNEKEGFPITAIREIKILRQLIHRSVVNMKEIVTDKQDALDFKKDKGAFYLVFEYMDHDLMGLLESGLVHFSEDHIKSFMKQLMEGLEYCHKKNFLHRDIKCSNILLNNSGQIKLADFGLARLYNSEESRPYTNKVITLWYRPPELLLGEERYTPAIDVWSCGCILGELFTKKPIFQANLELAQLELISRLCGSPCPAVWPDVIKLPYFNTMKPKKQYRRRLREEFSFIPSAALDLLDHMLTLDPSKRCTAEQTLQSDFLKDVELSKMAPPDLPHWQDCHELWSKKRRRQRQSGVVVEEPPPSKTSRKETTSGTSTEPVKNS
Sequence of CDK12/CycK (O75909 1-300 partner limits assumed): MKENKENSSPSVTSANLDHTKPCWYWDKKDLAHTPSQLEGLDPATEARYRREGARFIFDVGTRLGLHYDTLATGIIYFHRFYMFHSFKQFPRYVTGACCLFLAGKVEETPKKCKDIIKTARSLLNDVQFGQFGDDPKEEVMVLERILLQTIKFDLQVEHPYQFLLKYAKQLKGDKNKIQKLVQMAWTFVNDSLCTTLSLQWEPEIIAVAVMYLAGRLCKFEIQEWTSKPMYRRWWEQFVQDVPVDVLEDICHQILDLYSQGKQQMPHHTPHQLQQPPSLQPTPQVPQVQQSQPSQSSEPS

On to `Fc1cccc2[nH]c(CNc3nc(N4CCOCC4)nc4c(CC(F)(F)F)cnn34)nc12` [Example 303, N-[(4-fluoro-1H-benzimidazol-2-yl)methyl]-2-(morpholin-4-yl)-8-(2,2,2-trifluoroethyl)pyrazolo[1,5-a][1,3,5]triazin-4-amine], for which the results for the IC50 (in assay [1]; in assay [2]; on CDK12/CycK) were 7.9 nM, 4.79 nM and 1710 nM, respectively.
On to `N[C@H]1[C@@H]2C[C@H]1CN(c1nc(NCc3nc4ccccc4[nH]3)n3ncc(Br)c3n1)C2` [Example 288, 2-[(1R,5S,6r)-6-amino-3-azabicyclo[3.1.1]heptan-3-yl]-N-[(1H-benzimidazol-2-yl)methyl]-8-bromopyrazolo[1,5-a][1,3,5]triazin-4-amine], for which the IC50 turned out to be 1.8 nM in assay [1], 2.69 nM in assay [2] and 3380 nM on CDK12/CycK.
The matching figures for `N[C@@H]1CCN(c2nc(NCc3nc4ccccc4[nH]3)n3ncc(Br)c3n2)C1` [Example 250, 2-[(3R)-3-aminopyrrolidin-1-yl]-N-[(1H-benzimidazol-2-yl)methyl]-8-bromopyrazolo[1,5-a][1,3,5]triazin-4-amine]: 3.49 nM, 10.5 nM and 11300 nM.
The matching figures for `CN1CCN(c2nc(NCc3nc4c(F)cccc4[nH]3)n3ncc(C(F)(F)F)c3n2)CC1` [Example 293, N-[(4-fluoro-1H-benzimidazol-2-yl)methyl]-2-(4-methylpiperazin-1-yl)-8-(trifluoromethyl)pyrazolo[1,5-a][1,3,5]triazin-4-amine]: 8.88 nM, 5.68 nM and 5910 nM.
Regarding `CN1CCN(c2nc(NCc3nc4ccccc4[nH]3)n3ncc(C(F)(F)F)c3n2)CC1` [Example 297, N-[(1H-benzimidazol-2-yl)methyl]-2-(4-methylpiperazin-1-yl)-8-(trifluoromethyl)pyrazolo[1,5-a][1,3,5]triazin-4-amine], the IC50 stood at 22.3 nM in assay [1], 51.5 nM in assay [2] and 17400 nM on CDK12/CycK.
For `FC(F)(F)Cc1cnn2c(NCc3nc4cc(Cl)c(Cl)cc4[nH]3)nc(N3CCOCC3)nc12` [Example 302, N-[(5,6-dichloro-1H-benzimidazol-2-yl)methyl]-2-(morpholin-4-yl)-8-(2,2,2-trifluoroethyl)pyrazolo[1,5-a][1,3,5]triazin-4-amine], in that order: 8.98 nM, 9.06 nM and 5960 nM.
The matching figures for `N[C@H]1CN(c2nc(NCc3nc4ccccc4[nH]3)n3ncc(Br)c3n2)CC12CC2` [Example 259, 2-[(7R)-7-amino-5-azaspiro[2.4]heptan-5-yl]-N-[(1H-benzimidazol-2-yl)methyl]-8-bromopyrazolo[1,5-a][1,3,5]triazin-4-amine]: 11.9 nM, 11.4 nM and 2590 nM.
For `Fc1ccc2[nH]c(CNc3nc(N4C[C@H]5CC[C@@H](C4)N5)nc4c(C5CC5)cnn34)nc2c1F` [Example 294, 8-cyclopropyl-2-[(1R,5S)-3,8-diazabicyclo[3.2.1]octan-3-yl]-N-[(4,5-difluoro-1H-benzimidazol-2-yl)methyl]pyrazolo[1,5-a][1,3,5]triazin-4-amine], in that order: 1.42 nM, 1.16 nM and 1860 nM.
As for `N[C@@H]1[C@@H]2C[C@H]1CN(c1nc(NCc3nc4ccccc4[nH]3)n3ncc(Br)c3n1)C2` [Example 289, 2-[(1R,5S,6s)-6-amino-3-azabicyclo[3.1.1]heptan-3-yl]-N-[(1H-benzimidazol-2-yl)methyl]-8-bromopyrazolo[1,5-a][1,3,5]triazin-4-amine], the IC50 in assay [1] came out at 3.08 nM; in assay [2], 2.91 nM; on CDK12/CycK it was 7000 nM.
For `Fc1cc2nc(CNc3nc(N4CCOCC4)nc4c(C5CC5)cnn34)[nH]c2cc1F` [Example 318, 8-cyclopropyl-N-[(5,6-difluoro-1H-benzimidazol-2-yl)methyl]-2-(morpholin-4-yl)pyrazolo[1,5-a][1,3,5]triazin-4-amine], in that order: 2.8 nM, 0.97 nM and 1360 nM.
